Measurements: paper PMC8795197, “Safety and activity of WX-0593 (Iruplinalkib) in patients with ALK- or ROS1-rearranged advanced non-small cell lung cancer: a phase 1 dose-escalation and dose-expansion trial” (Signal Transduction and Targeted Therapy, 2022)
“Also recorded” adds a separate entry of the source. Where two headings read alike, the source gives them in different places.

Experiments:
[1] = Absorption study (IV and oral gavage PK); format: in vivo, Sprague Dawley (SD) rats; settings: for bioavailability: read-out: absolute bioavailability
[2] = system: remaining 17 GPCR targets; test: GPCR antagonist screening assay; format: cell-based; settings: highest dose detected
[3] = Tissue distribution of total radioactivity after [14C]WX-0593; format: in vivo, SD rats
Experimental: At 0.5 h after drug administration, the total radioactivity was mainly distributed in the gastrointestinal tract, liver, oesophagus, and adrenal glands. […] The distribution of total radioactivity in other tissues in descending order was lungs, kidneys, spleen, pancreas, lymph nodes, heart, uterus and ovaries, plasma, thymus, prostate, whole blood, skeletal muscles, skin, testis and epididymis, and whole brain. […] Only the total radioactivity of skeletal muscles (1417 ng Eq./g), whole blood (1366 ng Eq./g), body fat (1079 ng Eq./g), testis and epididymis (619 ng Eq./g), and whole brain (114 ng Eq./g) were lower than that of plasma at the same time point. […] At the last sampling time point (72 h), most total radioactivity had been cleared from the body and only the spleen, adrenal glands, liver, testis and epididymis, kidneys, lymph nodes, uterus and ovaries, intestinal wall, lungs, and thymus had been traced small amount of radioactivity.

[4] = Single-dose toxicity study (acute toxicity)
[5] = Metabolic stability in liver microsomes; format: in vitro ADME; settings: for half-life: read-out: elimination half-life
From the text: The objective of this study is to evaluate the metabolic stability of tested drug WX-0593 in CD-1 mice, SD rats, beagles, cynomolgus monkeys, and human liver microsomes.

[6] = biological target: hERG (Homo sapiens, UniProt Q12809); test: Inhibition of hERG currents; format: cell-based; settings: human; maximum tested dose 30 μM
Experimental: (§1) […]. Therefore, WX-0593 has a low risk of cardiotoxicity. There were no effects on the CNS and respiratory system in rats at doses of 3, 10, and 30 mg/kg. However, WX-0593 10 and 30 mg/kg may result in benign respiratory rate and decreases in minute ventilation in female rats. There were no effects on the cardiovascular system, blood pressure, ECG parameters or waveforms in monkeys at doses of 5, 10, and 25 mg/kg; 10 and 25 mg/kg may result in mild decreases in heart rate (within the normal range) and PR prolongation and QTc shortening associated with bradycardia within the normal range (no statistical difference when compared to the control arm). No cardiovascular system adverse reactions related to the test product were found. The human equivalent dose (using 60 kg) is 3636 mg/person in CNS, 3636 mg/person in male respiratory system and 363.6 mg/person in female respiratory system, and 607 mg/person in cardiovascular system.

[7] = biological target: hERG currents (Homo sapiens, UniProt Q12809); test: Inhibition of hERG currents; format: cell-based
Experimental: as §1

[8] = system: 27 non-target kinases (MAP4K4 ... INSR, EGFR wild type); test: Inhibitory study of 27 non-target kinases; format: biochemical; settings: except for EGFR wild type
[9] = Mutagenicity study
[10] = system: Karpas299 (NPM-ALK); test: Cell proliferation inhibition assay; format: cell-based
[11] = biological target: CYP3A4 (Homo sapiens, UniProt P08684); test: Metabolic enzyme phenotyping (chemical inhibitors, recombinant human P450); format: in vitro ADME
From the text: Other isoenzymes (CYP1A2, CYP2B6, CYP2C8, CYP2C9, CYP2C19 and CYP2D6) played a secondary or insignificant role in the formation of M1, M2, and M5.

[12] = system: ALK+ human lung cancer LU-01-0319 xenograft; test: PDX model, anti-tumor activity; format: in vivo
Experimental: (§2) The anti-tumor activity of WX-0593 was evaluated in two PDX models. […] WX-0593 was well-tolerated at all concentrations.

[13] = system: ALK+ human lung cancer LU-01-0015 xenograft; test: PDX model, anti-tumor activity; format: in vivo
Experimental: as §2

[14] = Excretion and mass balance after [14C]WX-0593; settings: 0-168 hours
[15] = 0.5 h, oral [14C]WX-0593 8 mg/kg
[16] = Sprague-Dawley, rat, SD rats liver microsomes
[17] = beagle, dog, beagles liver microsomes
[18] = cynomolgus monkey, cynomolgus monkeys liver microsomes
[19] = mouse, CD-1 mice liver microsomes

Chain of hERG currents (Q12809 whole entry): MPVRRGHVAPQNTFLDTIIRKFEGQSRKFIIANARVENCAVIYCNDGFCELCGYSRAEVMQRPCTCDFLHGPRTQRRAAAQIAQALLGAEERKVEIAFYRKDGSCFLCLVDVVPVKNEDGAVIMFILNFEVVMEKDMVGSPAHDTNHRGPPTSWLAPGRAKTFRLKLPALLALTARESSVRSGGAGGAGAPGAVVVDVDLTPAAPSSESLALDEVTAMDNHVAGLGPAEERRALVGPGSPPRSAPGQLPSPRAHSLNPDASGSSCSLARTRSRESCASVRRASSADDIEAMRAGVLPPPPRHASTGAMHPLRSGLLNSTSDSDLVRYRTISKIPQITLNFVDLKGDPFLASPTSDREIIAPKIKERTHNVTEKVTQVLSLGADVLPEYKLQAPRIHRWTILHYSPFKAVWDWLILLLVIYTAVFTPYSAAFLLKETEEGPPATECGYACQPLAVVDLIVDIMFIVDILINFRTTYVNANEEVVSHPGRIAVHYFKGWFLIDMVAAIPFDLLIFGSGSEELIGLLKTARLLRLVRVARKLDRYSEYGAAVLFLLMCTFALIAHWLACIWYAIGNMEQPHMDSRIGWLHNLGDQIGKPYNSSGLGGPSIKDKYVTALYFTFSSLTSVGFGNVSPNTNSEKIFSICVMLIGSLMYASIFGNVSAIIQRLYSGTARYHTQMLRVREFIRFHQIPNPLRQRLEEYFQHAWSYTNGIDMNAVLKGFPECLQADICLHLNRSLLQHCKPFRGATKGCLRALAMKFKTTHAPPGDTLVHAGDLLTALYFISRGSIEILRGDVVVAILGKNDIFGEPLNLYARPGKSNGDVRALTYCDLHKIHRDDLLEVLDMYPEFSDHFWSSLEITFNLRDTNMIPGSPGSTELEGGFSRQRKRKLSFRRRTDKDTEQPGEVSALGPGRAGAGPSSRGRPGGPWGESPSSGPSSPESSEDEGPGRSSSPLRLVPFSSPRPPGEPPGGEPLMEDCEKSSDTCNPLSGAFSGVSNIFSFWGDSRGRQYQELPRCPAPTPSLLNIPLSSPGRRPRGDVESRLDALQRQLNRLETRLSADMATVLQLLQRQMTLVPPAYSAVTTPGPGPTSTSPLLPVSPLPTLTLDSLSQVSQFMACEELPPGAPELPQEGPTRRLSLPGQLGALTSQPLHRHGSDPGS
Chain of CYP3A4 (P08684 whole entry): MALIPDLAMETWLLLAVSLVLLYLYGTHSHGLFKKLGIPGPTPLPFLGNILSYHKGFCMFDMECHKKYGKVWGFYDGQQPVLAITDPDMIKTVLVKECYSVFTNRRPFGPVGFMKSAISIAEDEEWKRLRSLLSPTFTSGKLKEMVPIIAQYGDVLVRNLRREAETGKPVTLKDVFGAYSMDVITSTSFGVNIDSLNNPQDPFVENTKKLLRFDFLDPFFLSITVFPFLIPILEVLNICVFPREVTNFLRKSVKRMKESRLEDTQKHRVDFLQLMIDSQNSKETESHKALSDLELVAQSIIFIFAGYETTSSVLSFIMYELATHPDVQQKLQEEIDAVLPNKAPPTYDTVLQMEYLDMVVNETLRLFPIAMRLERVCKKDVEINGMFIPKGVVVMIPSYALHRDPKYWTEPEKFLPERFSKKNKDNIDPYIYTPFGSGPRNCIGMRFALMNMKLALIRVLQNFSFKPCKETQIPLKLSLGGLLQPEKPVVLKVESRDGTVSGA
Chain of hERG (Q12809 whole entry): as the sequence (Q12809 whole entry) above

COc1cc(N2CCC3(CCN(C)CC3)CC2)ccc1Nc1ncc(Cl)c(Nc2ccccc2P(C)(C)=O)n1 [WX-0593]
Tmax ([1]; both sexes, Sprague-Dawley, rat, plasma, oral gavage 2–24 mg/kg): 2.08 to 2.75 h | half-life ([1]; both sexes, Sprague-Dawley, rat, plasma, oral gavage 2–24 mg/kg, read-out: plasma terminal half-life): 3.14 to 3.7 h | AUC(0-inf) ([1]; both sexes, Sprague-Dawley, rat, plasma, single IV 2 mg/kg): 1560 ± 348 ng·h/mL | Vd ([1]; both sexes, Sprague-Dawley, rat, plasma, single IV 2 mg/kg, read-out: apparent volume of distribution (Vdss)): 5.23 ± 0.942 L/kg | MRT inf ([1]; both sexes, Sprague-Dawley, rat, plasma, single IV 2 mg/kg, read-out: mean residence time (MRT0-inf)): 3.96 ± 0.355 h | clearance ([1]; both sexes, Sprague-Dawley, rat, plasma, single IV 2 mg/kg, read-out: plasma clearance (CL)): 22.2 ± 4.67 mL/min/kg | half-life ([1]; both sexes, Sprague-Dawley, rat, plasma, single IV 2 mg/kg, read-out: plasma elimination half-life T1/2 (converted)): 3.58 ± 0.652 h | bioavailability ([1]; both sexes, Sprague-Dawley, rat, plasma, single oral gavage 2 mg/kg): 36.9% | bioavailability ([1]; both sexes, Sprague-Dawley, rat, plasma, single oral gavage 24 mg/kg): 69.6% | drug accumulation ([1]; oral 8 mg/kg, 7 consecutive days): no significant drug accumulation | CL as % of hepatic blood flow in rats ([1]; single IV 2 mg/kg): 40.3% | absolute bioavailability ([1]; single oral gavage 8 mg/kg): 64.7% | IC50 [2]: > 111 µM | total radioactivity relative to plasma, adrenal glands ([3]; 0.5 h): 8.76 times | total radioactivity relative to plasma, intestinal wall ([3]; 0.5 h): 28.1 times | total radioactivity relative to plasma, liver ([3]; 0.5 h): 9.96 times | total radioactivity relative to plasma, oesophagus ([3]; 0.5 h): 9.07 times | total radioactivity relative to plasma, stomach wall ([3]; 0.5 h): 18.6 times | mean total radioactivity, adrenal glands [3, 15]: 13334 ng Eq./g | mean total radioactivity, intestinal wall [3, 15]: 42737 ng Eq./g | mean total radioactivity, liver [3, 15]: 15160 ng Eq./g | mean total radioactivity, oesophagus [3, 15]: 13803 ng Eq./g | mean total radioactivity, plasma [3, 15]: 1522 ng Eq./g | mean total radioactivity, stomach wall [3, 15]: 28265 ng Eq./g | total radioactivity, body fat ([3]; 3 h): 1079 ng Eq./g | total radioactivity, plasma ([3]; 3 h): 2062 ng Eq./g | total radioactivity, skeletal muscles ([3]; 3 h): 1417 ng Eq./g | total radioactivity, testis and epididymis ([3]; 3 h): 619 ng Eq./g | total radioactivity, whole blood ([3]; 3 h): 1366 ng Eq./g | total radioactivity, whole brain ([3]; 3 h): 114 ng Eq./g | mean total radioactivity, adrenal glands ([3]; 72 h): 1296 ng Eq./g | mean total radioactivity, intestinal wall ([3]; 72 h): 129 ng Eq./g | mean total radioactivity, kidneys ([3]; 72 h): 438 ng Eq./g | mean total radioactivity, liver ([3]; 72 h): 922 ng Eq./g | mean total radioactivity, lungs ([3]; 72 h): 103 ng Eq./g | mean total radioactivity, lymph nodes ([3]; 72 h): 292 ng Eq./g | mean total radioactivity, spleen ([3]; 72 h): 1883 ng Eq./g | mean total radioactivity, testis and epididymis ([3]; 72 h): 504 ng Eq./g | mean total radioactivity, thymus ([3]; 72 h): 95.8 ng Eq./g | mean total radioactivity, uterus and ovaries ([3]; 72 h): 187 ng Eq./g | MTD as multiple of the effective dose ([4]; female animals): 10 times | MTD as multiple of the effective dose ([4]; males): 40 times | CLint scaled [5, 16]: < 17.3 mL/min/kg | half-life [5, 16]: > 2.42 h | CLint scaled [5, 17]: 14.7 mL/min/kg | half-life [5, 17]: 2.27 h | CLint scaled [5, 18]: < 13 mL/min/kg | half-life [5, 18]: > 2.42 h | CLint scaled ([5]; human liver microsomes): < 9.5 mL/min/kg | half-life ([5]; human liver microsomes): > 2.42 h | CLint scaled [5, 19]: 52.3 mL/min/kg | half-life [5, 19]: 1.75 h | inhibition at 30 μM [6]: 58.1% | IC50 [7]: 20 µM | hERG slope [7]: 0.95 | inhibitory activity against non-target kinases [8]: no significant inhibitory activity | mutagenic activity [9]: no mutagenic activity | growth inhibition [10]: significantly inhibits the growth | major metabolic enzyme (formation of M1, M2, M5) [11]: primarily metabolized by CYP3A4; also recorded: CYP3A4 is the major metabolic enzyme | anti-tumor activity ([12]; 1, 2.5 and 5 mg/kg): good anti-tumor activity | mean body weight ([12]; all treatment arms): no significant decrease in mean weight | anti-tumor activity ([13]; 15 mg/kg, 10 mg/kg (D0–D7)/2.5 mg/kg (D8–D27), 5 mg/kg): significant anti-tumor activity | body weight ([13]; all treatment arms): no significant decrease in weight | dose excreted in feces [14]: 85.84% | dose excreted in urine [14]: 9.36% | dose in cage rinses and washes [14]: 1.51% | mean radioactivity recovery rate ([14]; single oral [14C]WX-0593 8 mg/kg): 96.71%
